# Columns and labels:
# Assay type in all cases: biochemical
# BAM3 = target: T1, BAM3 (Arabidopsis thaliana, UniProt O23553); assay: GC-MS maltose assay, Lineweaver-Burk and non-linear regression; conditions: substrate maltohexaose 2.5-25 mM; mixed inhibition; 50 mM sodium acetate, 5 mM DTT, 5 mM EDTA, pH 6.0, 25°C
# T1 sequence (O23553 50-548): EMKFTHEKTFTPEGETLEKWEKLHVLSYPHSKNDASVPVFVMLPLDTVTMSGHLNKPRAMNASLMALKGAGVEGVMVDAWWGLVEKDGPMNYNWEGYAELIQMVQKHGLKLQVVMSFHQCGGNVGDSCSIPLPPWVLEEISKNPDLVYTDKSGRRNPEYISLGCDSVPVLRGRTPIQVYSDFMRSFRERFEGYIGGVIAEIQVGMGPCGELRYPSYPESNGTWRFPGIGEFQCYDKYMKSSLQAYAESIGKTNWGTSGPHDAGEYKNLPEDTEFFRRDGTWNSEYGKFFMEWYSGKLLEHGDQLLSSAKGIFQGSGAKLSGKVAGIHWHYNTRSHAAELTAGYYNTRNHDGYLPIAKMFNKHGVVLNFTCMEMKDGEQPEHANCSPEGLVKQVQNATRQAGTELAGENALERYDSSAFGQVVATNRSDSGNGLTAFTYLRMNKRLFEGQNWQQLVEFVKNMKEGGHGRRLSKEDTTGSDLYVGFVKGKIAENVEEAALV
# BAM1 = target: T2, BAM1 (Arabidopsis thaliana, UniProt Q9LIR6); assay: Betamyl colorimetric assay, p-nitrophenol release; conditions: 2.5 mM substrate, 0.1 M maleic acid pH 6.2, 40°C; enzyme pre-treated with 20 mM DTT
# T2 sequence (Q9LIR6 42-575): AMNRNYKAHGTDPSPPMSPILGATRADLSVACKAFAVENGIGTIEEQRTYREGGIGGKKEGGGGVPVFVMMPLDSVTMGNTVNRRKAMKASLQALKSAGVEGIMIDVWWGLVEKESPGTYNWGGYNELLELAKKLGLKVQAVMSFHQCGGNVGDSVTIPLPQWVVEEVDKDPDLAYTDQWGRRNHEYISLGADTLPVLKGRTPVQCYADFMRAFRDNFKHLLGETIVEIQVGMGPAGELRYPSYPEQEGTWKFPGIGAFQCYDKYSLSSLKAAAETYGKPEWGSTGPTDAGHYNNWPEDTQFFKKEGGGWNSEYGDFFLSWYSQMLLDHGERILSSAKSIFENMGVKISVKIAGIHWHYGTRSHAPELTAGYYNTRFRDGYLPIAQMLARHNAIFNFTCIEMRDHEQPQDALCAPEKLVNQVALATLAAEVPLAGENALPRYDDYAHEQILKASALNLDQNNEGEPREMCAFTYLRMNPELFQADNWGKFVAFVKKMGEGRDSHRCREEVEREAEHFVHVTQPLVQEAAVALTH
# barley BAM = target: T3, barley BAM (Hordeum vulgare, UniProt P16098); assay: Betamyl colorimetric assay, p-nitrophenol release; conditions: 2.5 mM substrate, 0.1 M maleic acid pH 6.2, 40°C; enzyme pre-treated with 20 mM DTT
# T3 construct: gene BMY1; commercial barley seed beta-amylase (Sigma A7130), native preparation, lyophilised powder
# T3 sequence (P16098 whole entry): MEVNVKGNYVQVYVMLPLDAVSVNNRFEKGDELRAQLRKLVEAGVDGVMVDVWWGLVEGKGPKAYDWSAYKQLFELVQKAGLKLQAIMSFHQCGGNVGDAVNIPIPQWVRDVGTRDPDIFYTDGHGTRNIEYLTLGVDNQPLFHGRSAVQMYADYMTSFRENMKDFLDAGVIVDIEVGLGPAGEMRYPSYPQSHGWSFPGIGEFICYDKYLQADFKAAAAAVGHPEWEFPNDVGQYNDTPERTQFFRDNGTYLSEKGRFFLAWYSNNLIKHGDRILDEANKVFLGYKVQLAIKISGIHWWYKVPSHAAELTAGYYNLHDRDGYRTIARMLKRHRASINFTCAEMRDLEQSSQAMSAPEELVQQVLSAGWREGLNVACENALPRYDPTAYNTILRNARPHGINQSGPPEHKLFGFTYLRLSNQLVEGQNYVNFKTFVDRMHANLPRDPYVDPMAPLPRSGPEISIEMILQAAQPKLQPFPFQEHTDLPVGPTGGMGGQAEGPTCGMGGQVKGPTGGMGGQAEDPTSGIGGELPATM
SMILES,Ki (BAM3),"Betamyl colorimetric assay, p-nitrophenol release (BAM1)","Betamyl colorimetric assay, p-nitrophenol release (barley BAM)"
"OC[C@H]1O[C@H](O[C@H]2[C@H](O)[C@@H](O)[C@@H](O[C@H]3[C@H](O)[C@@H](O)C(O)O[C@@H]3CO)O[C@@H]2CO)[C@H](O)[C@@H](O)[C@@H]1O (stereo partly drawn) [G3, maltotriose]",7.5 mM,,
"O=[N+]([O-])c1ccc(O[C@H]2O[C@H](CO)[C@@H](O[C@H]3O[C@H](CO)[C@@H](O[C@H]4O[C@H](CO)[C@@H](O[C@H]5O[C@H](CO)[C@@H](O[C@H]6O[C@H](CO)[C@@H](O)[C@H](O)[C@H]6O)[C@H](O)[C@H]5O)[C@H](O)[C@H]4O)[C@H](O)[C@H]3O)[C@H](O)[C@H]2O)cc1 [PNPG5, p-nitrophenyl maltopentaoside]",,"we assayed recombinant BAM1 and commercially-purchased barley seed β-amylase, under the same conditions","we assayed recombinant BAM1 and commercially-purchased barley seed β-amylase, under the same conditions"

# — PMC5321445, “Inhibition of Arabidopsis chloroplast β-amylase BAM3 by maltotriose suggests a mechanism for the control of transitory leaf starch mobilisation” (PLoS ONE, 2017)
